PubChem BioAssay (NCI)
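Growth conditions: 96-well plates. Treatment: test compound, 48 hours, 5 concentrations. Analysis: linear interpolation between bracketing concentrations; unreached endpoints set to highest concentration. GI50 is the concentration that inhibits growth by half. TGI: concentration producing complete growth inhibition.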

Assays:
Test in all cases: DTP human tumour cell line panel, 48 h
SK-OV-3 ovarian = tested on: SK-OV-3 ovarian
CCRF-CEM leukemia = tested on: CCRF-CEM leukemia
UACC-62 melanoma = tested on: UACC-62 melanoma
U251 CNS = tested on: U251 CNS
K-562 leukemia = tested on: K-562 leukemia
MOLT-4 leukemia = tested on: MOLT-4 leukemia
OVCAR-8 ovarian = tested on: OVCAR-8 ovarian
SNB-19 CNS = tested on: SNB-19 CNS
OVCAR-4 ovarian = tested on: OVCAR-4 ovarian
SF-539 CNS = tested on: SF-539 CNS
SF-268 CNS = tested on: SF-268 CNS
LOX IMVI melanoma = tested on: LOX IMVI melanoma
MDA-MB-435 = tested on: MDA-MB-435
NCI-H460 lung = tested on: NCI-H460 lung
MDA-MB-468 breast = tested on: MDA-MB-468 breast
T-47D breast = tested on: T-47D breast
CAKI-1 renal = tested on: CAKI-1 renal
A498 renal = tested on: A498 renal
SN12C renal = tested on: SN12C renal
MALME-3M melanoma = tested on: MALME-3M melanoma
SK-MEL-5 melanoma = tested on: SK-MEL-5 melanoma
COLO 205 colon = tested on: COLO 205 colon
BT-549 breast = tested on: BT-549 breast
NCI-H226 lung = tested on: NCI-H226 lung
RXF 393 renal = tested on: RXF 393 renal
KM12 colon = tested on: KM12 colon
DU-145 prostate = tested on: DU-145 prostate
PC-3 prostate = tested on: PC-3 prostate
MCF7 breast = tested on: MCF7 breast
786-0 renal = tested on: 786-0 renal
EKVX NSCLC = tested on: EKVX NSCLC
SF-295 CNS = tested on: SF-295 CNS
OVCAR-3 ovarian = tested on: OVCAR-3 ovarian
MDA-MB-231 breast = tested on: MDA-MB-231 breast
HCT-15 colon = tested on: HCT-15 colon
M14 melanoma = tested on: M14 melanoma
HCC-2998 colon = tested on: HCC-2998 colon
HOP-92 NSCLC = tested on: HOP-92 NSCLC
UACC-257 melanoma = tested on: UACC-257 melanoma
NCI-H23 lung = tested on: NCI-H23 lung
HS 578T breast = tested on: HS 578T breast
SK-MEL-28 melanoma = tested on: SK-MEL-28 melanoma
OVCAR-5 ovarian = tested on: OVCAR-5 ovarian
HT29 colon = tested on: HT29 colon
TK-10 renal = tested on: TK-10 renal
SW-620 colon = tested on: SW-620 colon
ACHN renal = tested on: ACHN renal
IGROV1 ovarian = tested on: IGROV1 ovarian
A549 NSCLC = tested on: A549 NSCLC
HL-60(TB) leukemia = tested on: HL-60(TB) leukemia
SK-MEL-2 melanoma = tested on: SK-MEL-2 melanoma
NCI-H522 lung = tested on: NCI-H522 lung
RPMI-8226 leukemia = tested on: RPMI-8226 leukemia
UO-31 renal = tested on: UO-31 renal
HOP-62 NSCLC = tested on: HOP-62 NSCLC
SNB-75 CNS = tested on: SNB-75 CNS
HCT-116 colon = tested on: HCT-116 colon
SR leukemia = tested on: SR leukemia

SMILES: COc1cccc2nc(Nc3ccc(F)c(NC(=O)c4ccc(CN5CCN(C)CC5)c(C(F)(F)F)c4)c3)ccc12
- GI50 (SK-OV-3 ovarian): 15.7 µM
- TGI (SK-OV-3 ovarian): 29.8 µM
- GI50 (CCRF-CEM leukemia): 9.71 µM
- TGI (CCRF-CEM leukemia): 25.6 µM
- GI50 (UACC-62 melanoma): 16.2 µM
- TGI (UACC-62 melanoma): 30.9 µM
- GI50 (U251 CNS): 13.4 µM
- TGI (U251 CNS): 26.1 µM
- GI50 (K-562 leukemia): 3.59 µM
- TGI (K-562 leukemia): 20.9 µM
- GI50 (MOLT-4 leukemia): 4.1 µM
- TGI (MOLT-4 leukemia): 18.4 µM
- GI50 (OVCAR-8 ovarian): 15.8 µM
- TGI (OVCAR-8 ovarian): 29.8 µM
- GI50 (SNB-19 CNS): 17.2 µM
- TGI (SNB-19 CNS): 32.8 µM
- GI50 (OVCAR-4 ovarian): 13.9 µM
- TGI (OVCAR-4 ovarian): 28.9 µM
- GI50 (SF-539 CNS): 12.4 µM
- TGI (SF-539 CNS): 25.5 µM
- GI50 (SF-268 CNS): 11.1 µM
- TGI (SF-268 CNS): 27.1 µM
- GI50 (LOX IMVI melanoma): 13.8 µM
- TGI (LOX IMVI melanoma): 27.3 µM
- GI50 (MDA-MB-435): 15.1 µM
- TGI (MDA-MB-435): 28.3 µM
- GI50 (NCI-H460 lung): 15.9 µM
- TGI (NCI-H460 lung): 33.5 µM
- GI50 (MDA-MB-468 breast): 4.79 µM
- TGI (MDA-MB-468 breast): 18.1 µM
- GI50 (T-47D breast): 14.8 µM
- TGI (T-47D breast): 31.4 µM
- GI50 (CAKI-1 renal): 11.5 µM
- TGI (CAKI-1 renal): 24.2 µM
- GI50 (A498 renal): 17 µM
- TGI (A498 renal): 32.2 µM
- GI50 (SN12C renal): 13.4 µM
- TGI (SN12C renal): 27.4 µM
- GI50 (MALME-3M melanoma): 11.7 µM
- TGI (MALME-3M melanoma): 24.1 µM
- GI50 (SK-MEL-5 melanoma): 15.5 µM
- TGI (SK-MEL-5 melanoma): 28.9 µM
- GI50 (COLO 205 colon): 17.2 µM
- TGI (COLO 205 colon): 31.9 µM
- GI50 (BT-549 breast): 10.5 µM
- TGI (BT-549 breast): 22.6 µM
- GI50 (NCI-H226 lung): 11.1 µM
- TGI (NCI-H226 lung): 24.7 µM
- GI50 (RXF 393 renal): 3.71 µM
- TGI (RXF 393 renal): 17.2 µM
- GI50 (KM12 colon): 15.4 µM
- TGI (KM12 colon): 29.6 µM
- GI50 (DU-145 prostate): 12.9 µM
- TGI (DU-145 prostate): 25.6 µM
- GI50 (PC-3 prostate): 12 µM
- TGI (PC-3 prostate): 28.7 µM
- GI50 (MCF7 breast): 12.3 µM
- TGI (MCF7 breast): 27.5 µM
- GI50 (786-0 renal): 12.5 µM
- TGI (786-0 renal): 26.4 µM
- GI50 (EKVX NSCLC): 14.7 µM
- TGI (EKVX NSCLC): 29.1 µM
- GI50 (SF-295 CNS): 17.1 µM
- TGI (SF-295 CNS): 32.2 µM
- GI50 (OVCAR-3 ovarian): 14.4 µM
- TGI (OVCAR-3 ovarian): 28 µM
- GI50 (MDA-MB-231 breast): 12.1 µM
- TGI (MDA-MB-231 breast): 24.9 µM
- GI50 (HCT-15 colon): 13.4 µM
- TGI (HCT-15 colon): 28.4 µM
- GI50 (M14 melanoma): 13.1 µM
- TGI (M14 melanoma): 27.5 µM
- GI50 (HCC-2998 colon): 18.8 µM
- TGI (HCC-2998 colon): 33.2 µM
- GI50 (HOP-92 NSCLC): 6.64 µM
- TGI (HOP-92 NSCLC): 21.6 µM
- GI50 (UACC-257 melanoma): 16.3 µM
- TGI (UACC-257 melanoma): 30.1 µM
- GI50 (NCI-H23 lung): 15.5 µM
- TGI (NCI-H23 lung): 29.6 µM
- GI50 (HS 578T breast): 14.1 µM
- TGI (HS 578T breast): 39.9 µM
- GI50 (SK-MEL-28 melanoma): 15.3 µM
- TGI (SK-MEL-28 melanoma): 30.3 µM
- GI50 (OVCAR-5 ovarian): 16.1 µM
- TGI (OVCAR-5 ovarian): 30.4 µM
- GI50 (HT29 colon): 3.61 µM
- TGI (HT29 colon): 13.9 µM
- GI50 (TK-10 renal): 16.4 µM
- TGI (TK-10 renal): 30.2 µM
- GI50 (SW-620 colon): 16.9 µM
- TGI (SW-620 colon): 30.9 µM
- GI50 (ACHN renal): 16.5 µM
- TGI (ACHN renal): 34.9 µM
- GI50 (IGROV1 ovarian): 14.5 µM
- TGI (IGROV1 ovarian): 29 µM
- GI50 (A549 NSCLC): 12.2 µM
- TGI (A549 NSCLC): 24.6 µM
- GI50 (HL-60(TB) leukemia): 6.52 µM
- TGI (HL-60(TB) leukemia): 25.4 µM
- GI50 (SK-MEL-2 melanoma): 16.1 µM
- TGI (SK-MEL-2 melanoma): 29.9 µM
- GI50 (NCI-H522 lung): 16 µM
- TGI (NCI-H522 lung): 30.2 µM
- GI50 (RPMI-8226 leukemia): 9.3 µM
- TGI (RPMI-8226 leukemia): 27.1 µM
- GI50 (UO-31 renal): 12.6 µM
- TGI (UO-31 renal): 25.5 µM
- GI50 (HOP-62 NSCLC): 14.5 µM
- TGI (HOP-62 NSCLC): 28 µM
- GI50 (SNB-75 CNS): 9.08 µM
- TGI (SNB-75 CNS): 21.4 µM
- GI50 (HCT-116 colon): 8.75 µM
- TGI (HCT-116 colon): 22.6 µM
- GI50 (SR leukemia): 9.84 µM
- TGI (SR leukemia): 28 µM
